Laboratory results from patent publication US20110079775A1, “Solution Processable Organic Semiconductors” (priority 2008, published 2011).

Format: physicochemical
Method: The solubility of B4MP-TIPS-An, which was synthesized in Example 1, was measured in various solvents at room temperature. This small molecule semiconductor had moderate solubility in n-butylbenzene (about 1.0 weight percent) and good solubility in dichlorobenzene (greater than 6.0 weight percent) and xylene (about 3.5 weight percent). The weight percent is based on the total solution weight.

In the case of COc1ccc(-c2ccc3c(C#C[Si](C(C)C)(C(C)C)C(C)C)c4cc(-c5ccc(OC)cc5)ccc4c(C#C[Si](C(C)C)(C(C)C)C(C)C)c3c2)cc1 [Example B4MP-TIPS-An, 2,6-Bis(4-methoxy-phenyl)-9,10-bis-[(triisopropylsilyl)ethynyl]anthracene], the solubility in dichlorobenzene is reported as “greater than 6.0 weight percent”, the solubility in n-butylbenzene is reported as “about 1.0 weight percent” and the solubility in xylene is reported as “about 3.5 weight percent”.
